Data set [1] concerns HaCaT cells. Put plainly: In vitro cell cytotoxicity (MTT) assay on HaCaT cells. In kind it is cell-based, human. The following applies: for IC50: 72 h incubation, MTT. The source says:
HaCaT (human, adult, low calcium, high temperature, human adult skin keratinocytes) cells were obtained from the IMB (Institute of Medical Biology) Skin Cell Bank. Fetal bovine serum (FBS), Dulbecco's minimum essential medium (DMEM) and trypsin EDTA solution were purchased from GE healthcare life sciences, Utah. Penicillin/streptomycin, dimethyl sulfoxide (DMSO), and phosphate buffered saline (PBS) were from Fisher Scientific (Singapore). Para-phenylenediamine (PPD) was purchased from Sigma Aldrich (Singapore). PPD analogues such as Dimer, trimer, ethyl hexyl para-phenylenediamine (EHPPD), hexyl para-phenylenediamine (HPPD), Bandrowski base (BB) were synthesized in house.
Cell viability was essentially determined using the MTT assay as described in the literature. The HaCaT cells were grown in DMEM with 10% FBS and 1% penicillin/streptomycin. The cells in T-75 cm^2 culture flasks were incubated with 5% CO2 at 37° C. in a humidified incubator. The HaCaT cells were grown to expected confluency and then they were harvested by trypsinizing the cell with 0.25% trypsin/EDTA and incubated at 37° C. for 5 min to obtain the complete cell detachment. After the incubation, cell pellets were resuspended, and washed twice with 1×PBS. The cell suspension in 1×PBS was counted and adjusted to 1×10^5/mL. A HaCaT keratinocyte suspension (100 μL in 1×PBS) with a cell concentration of 1×10^5 cells/mL) and a test solution (100 μL in milli-Q water) were combined in each well of two 96-well plates. Test solutions with a desired concentration were prepared by serial dilutions of the stock solutions with 1×PBS.
For the cytotoxicity experiment, cells were seeded at a density of 5×10^3 in 200 ul of medium into each well of 96-well plates. Cells were seeded as three sets of four replicates for each concentration. After 24 h of incubation, the cells were washed with PBS and cultured for 72 h with 200 ul of 10% FBS containing DMEM medium, together with the different concentrations of the test compounds ranging from 500 μM to 1.9 μM for PPD and analogues 1-5 and standard in a serial dilution. Then the medium was removed and 100 μl of MTT [3-(4,5-dimethylthiazol-2yl)-2,5-diphenyl-2H-tetrazolium bromide](1 mg/ml) (Alfa Aesar, Singapore) in PBS was added. At the end of 4 h incubation, the plates were removed from the incubator and plates were shaken for 5 min. The absorbance at 570 nm was determined using Bio-Tek plate reader. The cell viability rates were calculated from absorbance readings and represented as percentages of control value (untreated cells).

For data set [2], the system named is lysine peptide (Ac-RFAAKAA-COOH). Put plainly: Direct Peptide Reactivity Assay, lysine peptide. The following applies: for % of Lysine depletion, Avg / % of Lysine depletion, Rep 2 / % of Lysine depletion, Rep 3 / Reactivity Class: 1:50; for % of Lysine depletion, Rep 1: peptide 0.02 mM : test chemical 1 mM (1:50); for Reactivity Class: lysine. Here is the method:
(§1) The mass spectrometric analysis was performed by use of a AB SCIEX QTRAP 5500 tandem mass spectrometry (MS/MS) system (AB SCIEX, Framingham, Mass., USA) operating in triple quadrupole positive mode (ESI+) equipped with an AB Sciex Turbo Ion Spray interface. Acquisition and analysis of data were performed with Analyst software ver. 1.6.2 (Applied Biosystems).

Data set [3] relates to cysteine peptide (Ac-RFAACAA-COOH). Put plainly: Direct Peptide Reactivity Assay, cysteine peptide. The following applies: for % of Cysteine depletion, Avg / % of Cysteine depletion, Rep 2 / % of Cysteine depletion, Rep 3 / Reactivity Class: 1:10; for % of Cysteine depletion, Rep 1: peptide 0.02 mM : test chemical 0.2 mM (1:10); for Reactivity Class: cysteine. On the procedure: For cysteine DPRA, an additional step was performed.
as §1

Data set [4] concerns IL-8. Description: IL-8 ELISA on THP-1 cell supernatants. The format is cell-based, human. The following applies: preliminary ELISA, CV75. On the procedure:
(§2) For cytokine profiling in THP-1, supernatants from wells were collected and then used for cytokine analysis by a Chemokine immunosorbent assay Bio-legend ELISA Max kit. The levels of available IL-8 protein from THP-1 cell supernatants was estimated using this kit which are regulated upon activation of THP-1 model. Surface receptor expression of human CD-86, CD-54, MHC-I and IL-T3 were analyzed by flow cytometry using standard BD FACS analyzer with PE and FITC fluorescent labeled antibodies from Biolegend and e Bioscience.
(§3) In order to understand the effect of modified PPD hairdyes on THP-1 immune sensitization, a certain degree of Cytotoxicity at CV75% viable where 25% cell death is required before evaluation of supernatants in THP-1 models for expression of cytokine IL-8 and receptor expression of CD86, CD54, MHC-I and IL-T3 surface receptors upon treatment with standard PPD and modified hair dye compounds. Most allergens show a specific dose-dependent alteration of CD86 and/or CD54 expression or secretion of cytokine profiles. But depending on chemical, the alteration pattern may vary.
A general note: An ELISA detects its analyte on a solid surface through an enzyme-linked reagent.

Data set [5] concerns cysteine and lysine peptides. Description: Direct Peptide Reactivity Assay, mean of cysteine and lysine depletion (FIG. 12). Particulars: for Sensitizing potential predicted from mean peptide depletion: cysteine 1:10 / lysine 1:50 model; for Mean peptide depletion: mean of cysteine (1:10) and lysine (1:50), FIG. 12.
Data set [6] can be described thus: Solubility observed when preparing dyes. The format is physicochemical. The following applies: water / organic solvents.
Data set [7] has as its system ILT3. Put plainly: ILT3 surface expression on THP-1 by flow cytometry. In kind it is cell-based, human. Particulars: in comparison to DCNB. Here is the method:
as §2, §3
For orientation: In flow cytometry, cells or beads pass a laser one at a time.

The nature of data set [8]: Skin permeation in vertical Franz diffusion cells. The following applies: 8 h; for Penetration profile PPD vs derivatives (times less than PPD): ratio of PPD penetration to that of the compound. The format is in vitro ADME, porcine. Here is the method: Porcine ears were generously provided by the NUS Department of Surgery. The ears were frozen at −80° C. until use (up to 3 months) and thawed at room temperature on the day preceding the experiment. Prior to the experiment, the skin was separated from the cartilage and dermatomed to a thickness of ˜1.0 mm using an Acculan™ 3Ti dermatome (Aesculap, Inc., B. Braun, USA).
The PPD and derivatives were dissolved in deionized water at 1% w/v. The PPD and PPD derivatives 1-5 solutions were purged with argon gas to minimize oxidation of the donor solution.
Skin penetration studies were carried out using vertical Franz diffusion cells (PermeGear, USA) immersed in a 37° C. water bath. The donor and receptor volumes were 900 µL and 5 mL, respectively; the mean surface area of penetration was 0.64 cm^2. Upon insertion of the skin pieces into the Franz cells, the skin was equilibrated for 45 min with PBS in the receptor compartment. After equilibration, the skin's trans-epidermal water loss (TEWL) was measured using an Aquaflux AF300 (Biox, UK) to assess the integrity of the skin's stratum corneum barrier. The donor solution, consisting of PPD or derivative 1-5 (n=3 Franz cells each), was then added to the donor compartment and the penetration experiments were conducted for 8 h. The receptor solutions were continuously stirred with magnetic stirrers. At fixed time points, aliquots of 200 μL were taken from the receptor solution of each cell and the receptor solution topped up with 200 μL of fresh PBS. At the end of the experiment, the donor and receptor solutions were removed and the cells dismantled. For the purpose of mass balance on the PPD, PPD derivatives 1-5 the skin pieces and swabs of their outer surfaces were collected and stored in acetonitrile for PPD or derivative 1-5 extraction. The donor solution as well as PBS used to thoroughly wash each part of the Franz cells were also collected.
PPD, PPD derivatives 1-5 and metabolite concentrations in all permeation and mass balance samples were measured by LCMS. PPD steady state fluxes and permeability coefficients were calculated by fitting the solution to Fick's second law of diffusion at the steady state to the linear part of each experimental cumulative amount curve.
The validated method LCMS was applied to quantify PPD, PPD derivative 1-5 and metabolites from skin permeation study samples. FIGS. 3 and 4 show LCMS spectra for the identification of PPD and PPD derivatives 1 and 2 and metabolites from skin permeation study experiment.

By IC50 is commonly meant the point on the concentration scale where inhibition reaches its midpoint. Low values mean higher potency, high ones lower potency.

Values joined by “and” are separate entries in the source; they are usually repeats but may differ in a detail not shown here. Equal values may be shown once.

Regarding `NC1=CC(=Nc2ccc(N)cc2)C(N)=CC1=Nc1ccc(N)cc1` [Bandrowski Base, reference compound], the IC50 in data set [1] amounted to 6.09 µM. For the same compound, in data set [2] (20 min), the “% of Lysine depletion, Avg” value is listed as 6.7%; the “% of Lysine depletion, Rep 2” value was 7.89%; the “% of Lysine depletion, Rep 3” value is given as 2.54%; the “% of Lysine depletion, Rep 1” value was found to be 9.58%. Also, in data set [2] (20 min), the “Reactivity Class” value is listed as “Low”. For the same compound, in data set [2] (24 h), the “% of Lysine depletion, Avg” value was 5.6%; the “% of Lysine depletion, Rep 2” value worked out at 6.0%; the “% of Lysine depletion, Rep 3” value is on record as 5.5%; the “% of Lysine depletion, Rep 1” value is on record as 5.4%. Also, the “Reactivity Class” value in data set [2] (24 h) is listed as “Low”. In data set [3] (20 min), the “% of Cysteine depletion, Avg” value is recorded as 44.2%; the “% of Cysteine depletion, Rep 2” value amounted to 44.5%; the “% of Cysteine depletion, Rep 3” value came to 45.5%; the “% of Cysteine depletion, Rep 1” value was 42.5%. Also, the “Reactivity Class” value in data set [3] (20 min) was “High”. Besides, in data set [3] (24 h), the “% of Cysteine depletion, Avg” value is 70.7%; the “% of Cysteine depletion, Rep 2” value was found to be 69.9%; the “% of Cysteine depletion, Rep 3” value stood at 70.4%; the “% of Cysteine depletion, Rep 1” value turned out to be 71.8%. In addition, in data set [3] (24 h), the “Reactivity Class” value was “High”. The IL-8 expression entry in data set [4] is given as “increased expression”. Also, in data set [5], the “Sensitizing potential predicted from mean peptide depletion” value (shortened to “Sensitizing potential predicted”) is given as “moderate sensitizer” and the Mean peptide depletion is given as 38.9%. The “Solubility (in words)” value in data set [6] is on record as “limited solubility in water”.
Turning to `Nc1ccc(Nc2ccc(Nc3ccc(N)cc3)cc2)cc1` [PPD derivative 2, N^1,N^4-bis(4-aminophenyl)-1,4-benzenediamine], the “ILT3 (inhibitory receptor) expression” value in data set [7] is recorded as “increased”. For the same compound, in data set [8] (1% W/V applied), the “% Parent compound Penetrated (mean)” value turned out to be 0.00173% and the “% converted to metabolite (mean)” value worked out at 0.008%. In addition, the recovery at 8 h, 1 % w/v in data set [8] (pig, 1% W/V applied, read-out: % Parent compound Recovery (mean)) is 96.4%. Besides, the “Penetration profile PPD vs derivatives (times less than PPD)” value (“Penetration profile PPD vs derivatives” for short) in data set [8] (listed as PPD 2) was 93 and 93.6. In data set [1], the “Fold increase in cytotoxicity compared to PPD 1” value was found to be 6 fold. This compound also yielded a 50% inhibitory concentration (IC50) in data set [1] (Homo sapiens, HaCaT, 72 h) of 4.14 µM. For the same compound, in data set [2] (20 min), the “% of Lysine depletion, Avg” value was determined as 11.2%; the “% of Lysine depletion, Rep 2” value is 11.8%; the “% of Lysine depletion, Rep 3” value is reported as 11.8%; the “% of Lysine depletion, Rep 1” value was found to be 10.1%. The “Reactivity Class” value in data set [2] (20 min) was “Low”. In data set [2] (24 h), the “% of Lysine depletion, Avg” value turned out to be 9.08%; the “% of Lysine depletion, Rep 2” value was found to be 9.79%; the “% of Lysine depletion, Rep 3” value is given as 8.28%; the “% of Lysine depletion, Rep 1” value stood at 8.97%. Moreover, the “Reactivity Class” value in data set [2] (24 h) is listed as “Low”. Besides, in data set [3] (20 min), the “% of Cysteine depletion, Avg” value was found to be 54.0%; the “% of Cysteine depletion, Rep 2” value is on record as 53.6%; the “% of Cysteine depletion, Rep 3” value was found to be 52.6%; the “% of Cysteine depletion, Rep 1” value is listed as 55.6%. Moreover, the “Reactivity Class” value in data set [3] (20 min) is reported as “High”. In data set [3] (24 h), the “% of Cysteine depletion, Avg” value is reported as 64.1%; the “% of Cysteine depletion, Rep 2” value is reported as 65.6%; the “% of Cysteine depletion, Rep 3” value was determined as 61.2%; the “% of Cysteine depletion, Rep 1” value amounted to 65.6%. The “Reactivity Class” value in data set [3] (24 h) was “High”. For the same compound, in data set [5], the “Sensitizing potential predicted” value is recorded as “high sensitizing agents”.
For the compound `COCc1cc(N)ccc1N` [MEPPD, 2-(methoxymethyl)benzene-1,4,-diamine, reference compound], the “ILT3 (inhibitory receptor) expression” value in data set [7] is “increased”. In addition, in data set [8] (1% W/V applied), the “% Parent compound Penetrated (mean)” value came to 0.02%, the “% Parent compound Recovery (mean)” value was 95.39% and the “% converted to metabolite (mean)” value is 0.019%. Also, the “Penetration profile PPD vs derivatives” value in data set [8] was 8 and 8.1. Besides, the “Penetration profile PPD vs derivatives” value in data set [8] (listed as ME-PPD) is recorded as “about 7.5”. Also, in data set [1], the “Fold increase in IC50 compared to PPD” value was found to be 19 fold and the IC50 amounted to 544 µM. In addition, in data set [4], the IL-8 expression result is “increased expression”. In addition, in data set [5], the “Sensitizing potential predicted” value was “strong sensitizer” and the Mean peptide depletion is listed as 53.2%.

The values above are taken from US11129782B2, “Derivatives of PPD useful for coloring hair and skin” (National University of Singapore, priority 2017, dated 2021).
